Measured values: US9790230B2 (Hoffmann-La Roche Inc., priority 2015, dated 2017)
Read-outs that look alike come from different tables or passages of the source.

Experiments:
rat TAAR1 = rat TAAR1 (Rattus norvegicus (Rat), UniProt Q923Y9); test: Radioligand binding assay on rat TAAR1;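 further: membranes from HEK293 cells stably transfected with rat TAAR1, tritiated TAAR1 radioligand, 1 h incubation at 4 °C, nonspecific binding determined with excess unlabeled ligand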
mouse TAAR1 = mouse TAAR1 (Mus musculus (Mouse), UniProt Q923Y8); test: Radioligand binding assay on mouse TAAR1
Sequence of mouse TAAR1 (Q923Y8 whole entry): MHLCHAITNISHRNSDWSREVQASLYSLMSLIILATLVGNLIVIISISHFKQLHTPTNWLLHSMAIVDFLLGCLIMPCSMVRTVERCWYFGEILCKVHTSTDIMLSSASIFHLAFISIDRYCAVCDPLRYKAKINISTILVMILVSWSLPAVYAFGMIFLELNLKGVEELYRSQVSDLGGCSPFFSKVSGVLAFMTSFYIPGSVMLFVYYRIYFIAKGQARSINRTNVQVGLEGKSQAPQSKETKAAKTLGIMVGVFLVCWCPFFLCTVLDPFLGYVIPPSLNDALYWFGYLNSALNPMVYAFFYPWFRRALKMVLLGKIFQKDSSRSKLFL

[1] = read-out: Ki (μM) rat, rat TAAR1, HEK-293 membranes, second value of cell mouse/rat
[2] = read-out: Ki (μM) mouse, mouse TAAR1, HEK-293 membranes, first value of cell mouse/rat

Sequence of rat TAAR1 (Q923Y9 whole entry): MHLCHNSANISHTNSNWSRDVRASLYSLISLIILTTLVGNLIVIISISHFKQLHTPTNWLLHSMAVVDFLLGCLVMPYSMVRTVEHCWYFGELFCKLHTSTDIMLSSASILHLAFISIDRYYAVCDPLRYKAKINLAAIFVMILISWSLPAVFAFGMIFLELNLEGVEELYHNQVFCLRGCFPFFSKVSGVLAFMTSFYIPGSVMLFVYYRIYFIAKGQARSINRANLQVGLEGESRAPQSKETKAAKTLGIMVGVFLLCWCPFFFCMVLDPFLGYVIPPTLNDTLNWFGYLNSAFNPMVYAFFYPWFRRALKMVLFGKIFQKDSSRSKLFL

SMILES: CC(C)c1n[nH]c(C(=O)Nc2ccc([C@@H]3O[C@H]4CN[C@@H]3C4)cc2)c1F [Example 103, 4-Fluoro-3-isopropyl-N-[4-[(1R,3S,4R)-2-oxa-5-azabicyclo[2.2.1]heptan-3-yl]phenyl]-11H-pyrazole-5-carboxamide]
- Ki (rat TAAR1; [1]): 0.0405 µM
- Ki (mouse TAAR1; [2]): 0.0096 µM

SMILES: O=C(Nc1ccc([C@H]2O[C@@H]3CN[C@H]2C3)cc1)c1cccc(Cl)c1 [Example 8, 3-Chloro-N-[4-[(1S,3R,4S)-2-oxa-5-azabicyclo[2.2.1]heptan-3-yl]phenyl]benzamide]
- Ki (rat TAAR1): 0.21 µM
- Ki (mouse TAAR1): 0.0046 µM

SMILES: CC(C)Cc1n[nH]c(C(=O)Nc2ccc([C@@H]3O[C@H]4CN[C@@H]3C4)cc2)c1F [Example 100, 4-Fluoro-3-isobutyl-N-[4-[(1R,3S,4R)-2-oxa-5-azabicyclo[2.2.1]heptan-3-yl]phenyl]-11H-pyrazole-5-carboxamide]
- Ki (rat TAAR1; [1]): 0.0278 µM
- Ki (mouse TAAR1; [2]): 0.0059 µM

SMILES: FC(F)(F)c1cnc(Nc2ccc([C@@H]3O[C@H]4CN[C@@H]3C4)cc2)cn1 [Example 30, N-[4-[(1R,3S,4R)-2-Oxa-5-azabicyclo[2.2.1]heptan-3-yl]phenyl]-5-(trifluoromethyl)pyrazin-2-amine]
- Ki (rat TAAR1): 0.276 µM
- Ki (mouse TAAR1): 0.0291 µM

SMILES: FC(F)(F)COc1nccc(Nc2ccc([C@H]3O[C@@H]4CN[C@H]3C4)cc2)n1 [Example 80, N-[4-[(1S,3R,4S)-2-Oxa-5-azabicyclo[2.2.1]heptan-3-yl]phenyl]-2-(2,2,2-trifluoroethoxy)pyrimidin-4-amine]
- Ki (rat TAAR1): 1.08 µM
- Ki (mouse TAAR1): 0.0077 µM

SMILES: Brc1ccc([C@H]2O[C@@H]3CN[C@H]2C3)cc1 [Example 53, (1S,3R,4S)-3-(4-Bromophenyl)-2-oxa-5-azabicyclo[2.2.1]heptane]
- Ki (rat TAAR1): 0.0052 µM
- Ki (mouse TAAR1): 0.0034 µM

SMILES: O=C(Nc1ccc([C@@H]2O[C@H]3CN[C@@H]2C3)cc1)c1[nH]nc(C2CC2)c1Cl [Example 82, 4-Chloro-3-cyclopropyl-N-[4-[(1R,3S,4R)-2-oxa-5-azabicyclo[2.2.1]heptan-3-yl]phenyl]-11H-pyrazole-5-carboxamide]
- Ki (rat TAAR1; [1]): 0.0339 µM
- Ki (mouse TAAR1; [2]): 0.0035 µM

SMILES: CC(C)c1cc(C(=O)Nc2ccc([C@H]3O[C@@H]4CN[C@H]3C4)cc2)[nH]n1 [Example 43, 3-Isopropyl-N-[4-[(1S,3R,4S)-2-oxa-5-azabicyclo[2.2.1]heptan-3-yl]phenyl]-1H-pyrazole-5-carboxamide]
- Ki (rat TAAR1): 0.167 µM
- Ki (mouse TAAR1): 0.0144 µM

SMILES: O=C(Nc1cccc(Cl)c1)Nc1cccc([C@@H]2O[C@H]3CN[C@@H]2C3)c1 [Example 5, 1-(3-Chlorophenyl)-3-[3-[(1R,3S,4R)-2-oxa-5-azabicyclo[2.2.1]heptan-3-yl]phenyl]urea]
- Ki (rat TAAR1): 0.0192 µM
- Ki (mouse TAAR1): 1.33 µM

SMILES: O=C(Nc1ccc([C@@H]2O[C@H]3CN[C@@H]2C3)cc1)c1ccnc(C(F)(F)F)c1 [Example 26, N-[4-[(1R,3S,4R)-2-Oxa-5-azabicyclo[2.2.1]heptan-3-yl]phenyl]-2-(trifluoromethyl)pyridine-4-carboxamide]
- Ki (rat TAAR1): 0.137 µM
- Ki (mouse TAAR1): 0.0223 µM

SMILES: O=C(Nc1ccc([C@@H]2O[C@H]3CN[C@@H]2C3)cc1)c1ccnc(C(F)(F)F)n1 [Example 81, N-[4-[(1R,3S,4R)-2-Oxa-5-azabicyclo[2.2.1]heptan-3-yl]phenyl]-2-(trifluoromethyl)pyrimidine-4-carboxamide]
- Ki (rat TAAR1): 0.189 µM
- Ki (mouse TAAR1): 0.0271 µM

SMILES: O=C(Nc1ccc([C@@H]2O[C@H]3CN[C@@H]2C3)cc1)c1cnc(C2CC2)nc1 [Example 29, 2-Cyclopropyl-N-[4-[(1R,3S,4R)-2-oxa-5-azabicyclo[2.2.1]heptan-3-yl]phenyl]pyrimidine-5-carboxamide]
- Ki (rat TAAR1): 0.0438 µM
- Ki (mouse TAAR1): 0.0315 µM

SMILES: CCCc1n[nH]c(C(=O)Nc2ccc([C@@H]3O[C@H]4CN[C@@H]3C4)cc2)c1F [Example 78, 4-Fluoro-N-[4-[(1R,3S,4R)-2-oxa-5-azabicyclo[2.2.1]heptan-3-yl]phenyl]-3-propyl-1H-pyrazole-5-carboxamide]
- Ki (rat TAAR1): 0.103 µM
- Ki (mouse TAAR1): 0.0042 µM

SMILES: CCOc1ccc(NC(=O)c2ccc([C@H]3O[C@@H]4CN[C@H]3C4)cc2)cc1 [Example 58, N-(4-Ethoxyphenyl)-4-[(1S,3R,4S)-2-oxa-5-azabicyclo[2.2.1]heptan-3-yl]benzamide]
- Ki (rat TAAR1): > 10 µM
- Ki (mouse TAAR1): 0.0013 µM

SMILES: CCCc1n[nH]c(C(=O)Nc2ccc([C@H]3O[C@@H]4CN[C@H]3C4)cc2)c1Cl [Example 49, 4-Chloro-N-[4-[(1S,3R,4S)-2-oxa-5-azabicyclo[2.2.1]heptan-3-yl]phenyl]-3-propyl-1H-pyrazole-5-carboxamide]
- Ki (rat TAAR1): 0.037 µM
- Ki (mouse TAAR1): 0.0044 µM

SMILES: CCOc1ccc(C(=O)Nc2ccc([C@H]3O[C@@H]4CN[C@H]3C4)cc2)cn1 [Example 15, 6-Ethoxy-N-[4-[(1S,3R,4S)-2-oxa-5-azabicyclo[2.2.1]heptan-3-yl]phenyl]pyridine-3-carboxamide]
- Ki (rat TAAR1): 1.9 µM
- Ki (mouse TAAR1): 0.0155 µM

SMILES: O=C(NCc1ccc(C(F)(F)F)cc1)c1ccc([C@H]2O[C@@H]3CN[C@H]2C3)cc1 [Example 63, 4-[(1S,3R,4S)-2-Oxa-5-azabicyclo[2.2.1]heptan-3-yl]-N-[[4-(trifluoromethyl)phenyl]methyl]benzamide]
- Ki (rat TAAR1): 0.593 µM
- Ki (mouse TAAR1): 0.0034 µM

SMILES: c1ccc([C@@H]2O[C@H]3CN[C@@H]2C3)cc1 [Example 6, (1R,3S,4R)-3-Phenyl-2-oxa-5-azabicyclo[2.2.1]heptane]
- Ki (rat TAAR1): 0.814 µM
- Ki (mouse TAAR1): 1.54 µM

SMILES: FC(F)(F)c1ccc(CNc2ccc([C@H]3O[C@@H]4CN[C@H]3C4)cc2)cc1 [Example 39, 4-[(1S,3R,4S)-2-Oxa-5-azabicyclo[2.2.1]heptan-3-yl]-N-[[4-(trifluoromethyl)phenyl]methyl]aniline]
- Ki (rat TAAR1): 0.359 µM
- Ki (mouse TAAR1): 0.0069 µM

SMILES: CCc1n[nH]c(C(=O)Nc2ccc([C@@H]3O[C@H]4CN[C@@H]3C4)cc2)c1C [Example 67, 3-Ethyl-4-methyl-N-[4-[(1R,3S,4R)-2-oxa-5-azabicyclo[2.2.1]heptan-3-yl]phenyl]-11H-pyrazole-5-carboxamide]
- Ki (rat TAAR1; [1]): 0.503 µM
- Ki (mouse TAAR1; [2]): 0.01 µM

SMILES: FC(F)(F)c1cnc(Nc2ccc([C@H]3O[C@@H]4CN[C@H]3C4)cc2)cn1 [Example 22, N-[4-[(1S,3R,4S)-2-Oxa-5-azabicyclo[2.2.1]heptan-3-yl]phenyl]-5-(trifluoromethyl)pyrazin-2-amine]
- Ki (rat TAAR1): 0.34 µM
- Ki (mouse TAAR1): 0.0076 µM

SMILES: O=C(NCc1ccc(C(F)(F)F)cc1)c1ccc([C@@H]2O[C@H]3CN[C@@H]2C3)cc1 [Example 96, 4-[(1R,3S,4R)-2-Oxa-5-azabicyclo[2.2.1]heptan-3-yl]-N-[[4-(trifluoromethyl)phenyl]methyl]benzamide]
- Ki (rat TAAR1): > 1.45 µM
- Ki (mouse TAAR1): 0.0477 µM

SMILES: CCOc1n[nH]c(C(=O)Nc2ccc([C@H]3O[C@@H]4CN[C@H]3C4)cc2)c1Cl [Example 45, 4-Chloro-3-ethoxy-N-[4-[(1S,3R,4S)-2-oxa-5-azabicyclo[2.2.1]heptan-3-yl]phenyl]-1H-pyrazole-5-carboxamide]
- Ki (rat TAAR1): 0.21 µM
- Ki (mouse TAAR1): 0.0042 µM

SMILES: O=C(NCc1ccc(Cl)cc1)c1ccc([C@H]2O[C@@H]3CN[C@H]2C3)cc1 [Example 64, N-[(4-Chlorophenyl)methyl]-4-[(1S,3R,4S)-2-oxa-5-azabicyclo[2.2.1]heptan-3-yl]benzamide]
- Ki (rat TAAR1): 1.6 µM
- Ki (mouse TAAR1): 0.0033 µM

SMILES: CC(C)n1nc(OCC(F)(F)F)cc1C(=O)Nc1ccc([C@@H]2O[C@H]3CN[C@@H]2C3)cc1 [Example 89, 2-Isopropyl-N-[4-[(1R,3S,4R)-2-oxa-5-azabicyclo[2.2.1]heptan-3-yl]phenyl]-5-(2,2,2-trifluoroethoxy)pyrazole-3-carboxamide]
- Ki (rat TAAR1): 0.0026 µM
- Ki (mouse TAAR1): 0.028 µM

SMILES: CCOc1ccc(C(=O)Nc2ccc([C@@H]3O[C@H]4CN[C@@H]3C4)cc2)cc1 [Example 28, 4-Ethoxy-N-[4-[(1R,3S,4R)-2-oxa-5-azabicyclo[2.2.1]heptan-3-yl]phenyl]benzamide]
- Ki (rat TAAR1): 0.178 µM
- Ki (mouse TAAR1): 0.0043 µM

SMILES: CCCCNc1ccc([C@H]2O[C@@H]3CN[C@H]2C3)cc1 [Example 41, N-Butyl-4-[(1S,3R,4S)-2-oxa-5-azabicyclo[2.2.1]heptan-3-yl]aniline]
- Ki (rat TAAR1; [1]): 2.83 µM
- Ki (mouse TAAR1): 0.0222 µM

SMILES: O=C(Nc1ccc([C@@H]2O[C@H]3CN[C@@H]2C3)cc1)c1ccc(C(F)(F)F)nc1 [Example 72, N-[4-[(1R,3S,4R)-2-Oxa-5-azabicyclo[2.2.1]heptan-3-yl]phenyl]-6-(trifluoromethyl)pyridine-3-carboxamide]
- Ki (rat TAAR1): 0.0093 µM
- Ki (mouse TAAR1): 0.0153 µM

SMILES: CCc1ncc(C(=O)Nc2ccc([C@@H]3O[C@H]4CN[C@@H]3C4)cc2)cn1 [Example 74, 2-Ethyl-N-[4-[(1R,3S,4R)-2-oxa-5-azabicyclo[2.2.1]heptan-3-yl]phenyl]pyrimidine-5-carboxamide]
- Ki (rat TAAR1): 0.19 µM
- Ki (mouse TAAR1): 0.109 µM

SMILES: O=C(Nc1cccc([C@@H]2O[C@H]3CN[C@@H]2C3)c1)c1cccc(Cl)c1 [Example 1, 3-Chloro-N-[3-[(1R,3S,4R)-2-oxa-5-azabicyclo[2.2.1]heptan-3-yl]phenyl]benzamide]
- Ki (rat TAAR1): 0.132 µM
- Ki (mouse TAAR1): 2.99 µM

SMILES: FC(F)(F)c1ccc(Nc2ccc([C@H]3O[C@@H]4CN[C@H]3C4)cc2)nc1 [Example 19, N-[4-[(1S,3R,4S)-2-Oxa-5-azabicyclo[2.2.1]heptan-3-yl]phenyl]-5-(trifluoromethyl)pyridin-2-amine]
- Ki (rat TAAR1): 0.0641 µM
- Ki (mouse TAAR1): 0.0071 µM

SMILES: Fc1ccccc1[C@@H]1O[C@H]2CN[C@@H]1C2 [Example 106, (1R,3S,4R)-3-(2-Fluorophenyl)-2-oxa-5-azabicyclo[2.2.1]heptane]
- Ki (rat TAAR1): 0.836 µM
- Ki (mouse TAAR1): 1.03 µM

SMILES: Cc1n[nH]c(C(=O)Nc2ccc([C@H]3O[C@@H]4CN[C@H]3C4)cc2)c1Cl [Example 46, 4-Chloro-3-methyl-N-[4-[(1S,3R,4S)-2-oxa-5-azabicyclo[2.2.1]heptan-3-yl]phenyl]-1H-pyrazole-5-carboxamide]
- Ki (rat TAAR1): 0.673 µM
- Ki (mouse TAAR1): 0.0098 µM

SMILES: FC(F)(F)c1cc(Nc2ccc([C@H]3O[C@@H]4CN[C@H]3C4)cc2)ccn1 [Example 35, N-[4-[(1S,3R,4S)-2-Oxa-5-azabicyclo[2.2.1]heptan-3-yl]phenyl]-2-(trifluoromethyl)pyridin-4-amine]
- Ki (rat TAAR1): 0.819 µM
- Ki (mouse TAAR1): 0.011 µM
